Here are results for 23 compounds from US20070129334A1, “Orally Active Purine-Based Inhibitors of Heat Shock Protein 90” (CONFORMA THERAPEUTICS CORPORATION, priority 2001, published 2007).

Like-named read-outs stand apart in the source and are kept apart here.

The test system of one data set is Her-2 in MCF-7 cells. Description: HER2 inhibition assay (Her-2 degradation, MCF-7 cells, 24 incubation, flow cytometry). The format is cell-based. As to conditions: Homo sapiens, MCF7, concentration necessary to degrade 50% of Her 2 expression. The method, then: MCF-7 cells are seeded in 24 well plates at a density of approximately 30,000 cells/well and allowed to grow for 16 hours in DMEM supplemented with 10% FBS. Drug is then added at a concentration range of 100 uM to 0.01 uM. Cells are incubated for an additional […]. Drug treated cells and untreated control cells are trypsinized, and incubated at room temperature for 15 minutes with anti Her-2 neu Ab conjugated with phycoerythrin (Becton Dickinson, San Jose Calif.; Cat no. 340552) at a concentration of 0.25 ug/ml, or non-specific control IgG1 conjugated with phycoerythrin (Becton Dickinson, San Jose Calif.; Cat no. 340761). Samples were analyzed using a FACS Calibur flow cytometer (Becton Dickinson) equipped with Argon-ion laser that which emits 15 mW of 488 nm light for excitation of the phycoerythrin fluorochrome. 10,000 events were collected per sample. A fluorescence histogram was generated and the mean fluorescence intensity (mfi) of each sample was determined using Cellquest software. The background was defined as the mfi generated from cells incubated with control IgG, and was subtracted from each sample stained with the HER-2/neu Ab Percent degradation of Her-2 was calculated as follows: % Her-2 degradation=(mfi HER-2 sample)/(mfi HER-2 untreated cells)×100
The compounds in the table below were prepared as described above and evaluated for Her-2 degradation ability based on the above assay (example 314).
On the technique in general: Flow cytometry measures light scatter and fluorescence of single cells or particles in a stream.

In data set [1] the test system is Purified native Hsp90 protein (mixture of alpha and beta) from HeLa cells. Description: Fluorescence-based competitive binding assay for biotinylated-geldanamycin to purified Hsp90. As to conditions: HSP90 binding ability; competition with biotin-GM. The arrangement: species or system human.
Data set [2] can be described thus: Pharmacokinetics in Balb/C mice (IV 10 mg/kg, PO 100 mg/kg).
Data set [3] deals with HER-2 receptor (Hsp90 client) in MCF-7 cells. Description: HER-2 degradation assay (MCF-7 cells, 16 h, phycoerythrin-labeled antibody and flow cytometry). The format is cell-based, human.
A short description of a further data set: in vivo. To be noted: Balb/C, mouse, plasma, po, 100 mg/kg.
The test system of data set [4] is MCF-7 breast cancer cells. Kind of data set: MTS cell growth inhibition assay. It is filed as cell-based, human. To be noted: MCF-7 cells.
Data set [5] is described as follows: Solubility in simulated gastric fluid, simulated intestinal fluid and serum. The format is physicochemical. As to conditions: for Gastric (PH 2.0): solubility in simulated gastric fluid; for Serum (PH 7.4): solubility in serum; for Intestinal (PH 6.5): solubility in simulated intestinal fluid.
Data set [6] can be described thus: Mouse pharmacokinetics after oral administration at 100 mg/kg.
Setting [7] is: Homo sapiens, MCF7, 120 h, 5 days, SEM 9-21% of the mean.
The mark [8] stands for this setting: Homo sapiens, MCF7, MCF-7 cells, 16 h, average of at least three observations, read-out: HER-2 IC50.

For the compound `C#CCCCn1c(Sc2cc(OC)ccc2I)nc2c(N)ncnc21` [Compound 47, 8-(2-Iodo-5-methoxy-phenylsulfanyl)-9-pent-4-ynyl-9H-purin-6-ylamine], the IC50 came out at 300 nM in the data set on Her-2 in MCF-7 cells and 800 nM in data set [1].

For the compound `C#CCCCn1c(Cc2cc(OC)ccc2I)nc2c(N)ncnc21` [Compound 26, 8-(2-Iodo-5-methoxy-benzyl)-9-pent-4-ynyl-9H-purin-6-ylamine], the IC50 came to 1500 nM in the data set with Her-2 in MCF-7 cells and 1100 nM in data set [1].

One may read the Cmax as the peak of the concentration-time curve. On to `CCC(CC)NCCCn1c(Sc2cc(OC)ccc2I)nc2c(N)ncnc21` [Compound 108, 9-[3-(1-Ethyl-propylamino)-propyl]-8-(2-iodo-5-methoxy-phenylsulfanyl)-9H-purin-6-ylamine], for which the “IV Parameters T1/2” value in data set [2] (IV 10 mg/kg, H3PO4 salts) came out at 30 min. In data set [2] (IV 10 mg/kg, H3PO4 salts), the “IV Parameters VSS” value stood at 2.4 L/kg. Moreover, in data set [2] (IV 10 mg/kg, H3PO4 salts in phosphatidylcholine/water dispersion), the “IV Parameters Cl” value is given as 69 mL/min/kg. The “PO Parameters T1/2” value in data set [2] (PO 100 mg/kg, H3PO4 salts) was found to be 36 min. In addition, in data set [2] (PO 100 mg/kg, H3PO4 salts), the “PO Parameters Tmax” value was determined as 30 min. In addition, the “PO Parameters Cmax” value in data set [2] (PO 100 mg/kg, H3PO4 salts, plasma) is 5800 ng/mL. The “PO Parameters AUC” value in data set [2] (PO 100 mg/kg, over 4 h, H3PO4 salts) was 590 µg·min/mL. Further, the “PO Parameters % F” value in data set [2] (oral bioavailability, PO 100 mg/kg vs IV 10 mg/kg) was determined as 42%. The IC50 in data set [3] (Homo sapiens, MCF7, MCF-7 cells, 16 h, SEM 6-11% of the mean, read-out: HER-2 IC50) amounted to 210 nM; in data set [3] (Homo sapiens, MCF7, MCF-7 cells, read-out: HER-2 IC50), 210 nM; in data set [4] (setting [7]), 200 nM; in data set [4] (Homo sapiens, MCF7), 200 nM. In the data set “in vivo”, this compound registered a Cmax of 12 µM.

Regarding `CCCCn1c(Cc2cc(OC)ccc2OC)nc2c(N)ncnc21` [Compound 1, 8-(2,5-dimethoxybenzyl)-N-9-butyladenine], the IC50 in the data set with Her-2 in MCF-7 cells turned out to be 6000 nM; in data set [1], 10000 nM; in data set [3] (setting [8]) it was 12000 nM.

In the case of `COc1ccc(OC)c(Cc2nc3c(N)ncnc3n2CCC=C(C)C)c1` [Compound 10, 8-(2,5-Dimethoxy-benzyl)-9-(4-methyl-pent-3-enyl)-9H-purin-6-ylamine], the IC50 was 1500 nM with Her-2 in MCF-7 cells and 2800 nM in data set [1].

With `CCCCn1c(Sc2cc(OC)ccc2I)nc2c(N)ncnc21` [Compound 44, 9-Butyl-8-(2-iodo-5-methoxy-phenylsulfanyl)-9H-purin-6-ylamine], the IC50 (with Her-2 in MCF-7 cells; in data set [1]) was 1500 nM each time.

Regarding `COc1ccc(I)c(Cc2nc3c(N)nc(F)nc3n2CCC=C(C)C)c1` [Compound 28, 2-Fluoro-8-(2-iodo-5-methoxy-benzyl)-9-(4-methyl-pent-3-enyl)-9H-purin-6-ylamine], the values for the IC50 (with Her-2 in MCF-7 cells; in data set [1]) were 1000 nM and 2300 nM, respectively.

With `COc1ccc(OC)c(Cc2nc3c(N)nc(F)nc3n2CCCCCBr)c1` [Compound 5, 8-(2,5-Dimethoxy-benzyl)-2-fluoro-9-(5-bromo-pentyl)-9H-purin-6-ylamine], the IC50 came out at 1000 nM with Her-2 in MCF-7 cells and 2000 nM in data set [1].

As to `C#CCCCn1c(Cc2cc(OC)ccc2I)nc2c(N)nc(F)nc21` [Compound 29, 2-Fluoro-8-(2-iodo-5-methoxy-benzyl)-9-pent-4-ynyl-9H-purin-6-ylamine], the IC50 in the data set with Her-2 in MCF-7 cells is 800 nM; in data set [1], 900 nM.

For `C#CCCCn1c(Sc2cc(OC)ccc2OC)nc2c(N)ncnc21` [Compound 57, 8-(2,5-dimethoxy-phenylsulfanyl)-9-pent-4-ynyl-9H-purin-6-ylamine], the IC50 is 1400 nM in the data set with Her-2 in MCF-7 cells and 4000 nM in data set [1].

For the compound `COc1ccc(OC)c(Cc2nc3c(N)nc(F)nc3n2CCC=C(C)C)c1` [Compound 3, 8-(2,5-Dimethoxy-benzyl)-2-fluoro-9-(4-methyl-pent-3-enyl)-9H-purin-6-ylamine], the IC50 with Her-2 in MCF-7 cells came out at 500 nM; in data set [1] it was 1100 nM.

Take `C=CCNC1=C2C[C@@H](C)C[C@H](OC)[C@H](O)[C@@H](C)/C=C(\C)[C@H](OC(N)=O)[C@@H](OC)/C=C\C=C(/C)C(=O)NC(=CC1=O)C2=O` [Compound 17-AAG, 17-allylamino,17-desmethoxy-geldanamycin, reference compound]: the results for the IC50 in data set [3] (read-out: HER-2 IC50) and in data set [4] (5 days) were 12.9 ± 0.3 nM and 32 ± 4 nM, respectively.

In the case of `CCCCn1c(Sc2ccc(I)c(OC)c2)nc2c(N)ncnc21` [Compound 45, 9-Butyl-8-(4-iodo-3-methoxy-phenylsulfanyl)-9H-purin-6-ylamine], the IC50 with Her-2 in MCF-7 cells is 2000 nM; in data set [1], 1800 nM.

In the data set with Her-2 in MCF-7 cells, `C#CCCCn1c(Cc2cc(OC)ccc2OC)nc2c(N)nc(F)nc21` [Compound 2, 8-(2,5-dimethoxybenzyl)-N9-pentynyl-2-fluoro adenine] had an IC50 of 600 nM.

For the compound `CC(=O)OCCn1c(Sc2nc3cncc(Br)c3s2)nc2c(N)ncnc21` [Compound 204, Acetic acid 2-[6-amino-8-(7-bromo-thiazole[4,5-c]pyridin-2-ylsulfanyl)-purin-9-yl]-ethyl ester], the “Gastric (PH 2.0)” value in data set [5] was 98.5 µg/mL. In addition, in data set [3] (read-out: HER-2), the IC50 is 30 nM.

Compound `C#CCCCn1c(Sc2cc(OC)ccc2I)nc2c(N)ncnc21` [Compound 309, 8-(2-iodo-5-methoxy-phenylsulfanyl)-9-pent-4-ynyl-9H-purin-6-ylamine] came in with an IC50 in data set [4] (setting [7]) of 700 nM.

On to `COc1ccc(I)c(Cc2nc3c(N)ncnc3n2CCC=C(C)C)c1` [Compound 27, 8-(2-Iodo-5-methoxy-benzyl)-9-(4-methyl-pent-3-enyl)-9H-purin-6-yl amine], for which the IC50 in the data set on Her-2 in MCF-7 cells was found to be 800 nM; in data set [1], 900 nM.

As for `CCOP(=O)(CCn1c(Sc2nc3cncc(Cl)c3s2)nc2c(N)ncnc21)OCC` [Compound 206, {2-[6-Amino-8-(7-chloro-thiazolo[4,5-c]pyridinl-2-ylsulfanyl)-purin-9-yl]-ethyl}-phosphonic acid diethyl ester], the “solubility compared with benzothioazol analog 204” value in data set [5] (simulated gastric fluid, simulated intestinal fluid, serum) is recorded as “significantly more soluble in all three solutions”. In addition, in data set [5], the “Serum (PH 7.4)” value is 14 µg/mL, the “Gastric (PH 2.0)” value is 124 µg/mL and the “Intestinal (PH 6.5)” value was 38.3 µg/mL. In data set [6] (PO 100 mg/kg), the “plasma concentrations (in words)” value is given as “below the level of detection”. The Cmax in data set [6] (in vivo, po, 100 mg/kg) is under 500 ng/mL.

Take `COc1ccc(I)c(Sc2nc3c(N)ncnc3n2CCC=C(C)C)c1` [Compound 46, 8-(2-Iodo-5-methoxy-phenylsulfanyl)-9-(4-methyl-pent-3-enyl)-9H-purin-6-ylamine]: the results for the IC50 (in the data set on Her-2 in MCF-7 cells; in data set [1]; in data set [3] (setting [8])) were 300 nM, 900 nM and 370 nM, respectively.

Consider `CC(C)(C)CNCCn1c(Sc2nc3cccc(Cl)c3s2)nc2c(N)ncnc21` [Compound 247, 8-(7-Chloro-benzothiazol-2-ylsulfanyl)-9-[2-(2,2-dimethyl-propylamino)-ethyl]-9H-purin-6-yl amine], for which, in data set [5], the “Serum (PH 7.4)” value was 4.9 µg/mL and the “Intestinal (PH 6.5)” value is 6 µg/mL. In addition, the IC50 in data set [3] (Homo sapiens, MCF7, read-out: HER-2) came out at 35 nM.

Consider `CCCCn1c(Sc2nc3cccc(OC)c3s2)nc2c(N)ncnc21` [Compound 173, 9-Butyl-8-(7-methoxy-benzothiazol-2-ylsulfanyl)-9H-purine-6-ylamine], for which, in data set [5], the “Serum (PH 7.4)” value was 18 µg/mL, the “Gastric (PH 2.0)” value is 35 µg/mL and the “Intestinal (PH 6.5)” value is 2 µg/mL. Also, the IC50 in data set [3] (Homo sapiens, MCF7, read-out: HER-2 IC50(nM)) amounted to 190 nM.

As to `C#CCCCn1c(Cc2cc(OC)ccc2OC)nc2c(N)ncnc21` [Compound 8, 8-(2,5-Dimethoxy-benzyl)-9-pent-4-ynyl-9H-purin-6-ylamine], the IC50 in the data set on Her-2 in MCF-7 cells stood at 1500 nM; in data set [1], 6000 nM.

With `COc1ccc(OC)c(Sc2nc3c(N)ncnc3n2CCC=C(C)C)c1` [Compound 63, 8-(2,5-dimethoxy-phenylsulfanyl)-9-(4-methyl-pent-3-enyl)-9H-purin-6-ylamine], the IC50 with Her-2 in MCF-7 cells was 700 nM; in data set [1], 1300 nM.
